Test results as given in patent EP0362382A1, “METHOD OF STERILIZING PLANT POLLEN” (VSESOJUZNY NAUCHNO-ISSLEDOVATELSKY INST. SELSKOKHOZYAISTV. …, priority 1988, dated 1989).

What was measured:
Tritikale = assay: Field test of gametocidal activity (sterilisation of anthers), triticale; type: in vivo; conditions: V. Periode der Organogenese, 1,5%ige wäßrige Emulsion
Excerpt: (§1) Die gametozide Aktivitat der erfindungsgemäßen Sterilisationsmittel war im Feldversuch in verschiedenen bodenklimatischen Zonen mit Teilstücken von 10 m^2 Größe in drei- bis viermaliger Wiederholung festgestellt. Jedes Sterilisationsmittel wurde mindenstens 5 Jahre lang geprüft.
(§2) Die Entwicklung der Perioden der Organogenese wird zytologisch überwacht. Die Behandlung von Pflanzen mit dem Sterilisationsmittel erfolgt am Anfang der fünften Periode der Organogenese nach Kupermann.
Mit dem Ährenschieben verwirklicht man die Isolierung von Hauptähren und anderen Stockwerken in Pergamentbeuteln. Bei Weizen und Tritikale werden Einzelisolatoren benutzt. Bei Roggen schließt man je Ähre 5 bis 7 verschiedene nebeneinander befindliche Pflanzen unter einen gemeinsamen Isolator ein. Bei Hierse wird jede Rispe getrennt isoliert. Der Sterilitätsprozentsatz (X) für Weizen, Roggen, Tritikale und Hirse wird nach der Formel [formula] ermittelt.
Die Kornzahl in nicht isolierten Ähren von Kontrollpflanzen wird bedingt für 100 % Ansetzen bei freier Bestäubung angenommen.
Um zuverlässige Angaben zu erhalten, verwendet man 20 bis 25 Isolatoren jeder Wiederholung für Weizen und Tritikale, 10 .bis 15 Isolatoren jeder Wiederholung für Roggen und Hirse.
Pflanzen von Tritikale PRAG 109 werden in der V. Periode der Organogenese (nach Kupermann) mit 1,5%iger wäßriger Emulsion von Bis(di-n-butyläther) der δ, δ' -Thiodivaleriansäure, 4-Kaxboxybutyldezylsulfid, Bis(2-Äthylhexyläther) der δ, δ' -Thiodivaleriansäure behandelt. Die Emulsion enthält 0,1 Masse% Kalziumalkylbenzolsulfonat mit 12 bis 14 Kohlenstoffatomen und 0,01 Masse% Tetrahydrofuran. Der Verbrauch an Präparat beträgt 15 kg/ha. Als Kontrolle dienen Pflanzen, behandelt mit einem Verdünner ohne Sterilisationsmittel. Die Prüfergebnisse sind in der Tabelle 12 angegeben. […] Periode der Organogenese erhalten.
Pflanzen von Tritikale der Sorte Amphidiploid 206 werden in der V. Periode der Organogenese (nach Kupermann) mit 1,5%iger wäßriger Emulsion von Natriumsalz der δ, δ'-Thiodivaleriansäure, δ, δ' -Sulfonyldivaleriansäure Kaliumsalz der d , δ' -Sulfonyldivaleriansäure behandelt. Die Emulsion enthalt 0,1 Masse% Kalziumalkylbenzolsulfonat mit 12 bis 14 Kohlenstoffatomen und 0,01 Masse% Dodezylsulfat. Der Verbrauch an Präparat beträgt 9 kg/ha. Als Kontrolle dienen Pflanzen, behandelt mit einem Verdünner ohne Sterilisationsmittel. Die Prüfergebnisse sind in der Tabelle 13 angegeben. […] Periode der Organogenese erhalten.

Sonnenblume = assay: Field test of chemical sterilisation of sunflower pollen; type: in vivo; conditions: V. Periode der Organogenese
Excerpt: as §1, §2
Zur Kontrolle der chemischen Sterilisation des Sonnenblumenpollens werden für jede Verbindung 45 behandelte Pflanzen jeder Wiederholung benutzt, wobei 15 Pflanzen von denen zwecks Selbsbestäubung isoliert werden, Blütenkorbchen anderer 15 Pflanzen mit einem Pollengemisch, gesammelt von 20 bis 25 behandelten isolierten Körbchen, bestäubt werden, und 15 Pflanzen für freie Bestäubung gelassen werden, damit das Ansetzen von Achänen mit dem Pollen der väterlichen Form kontrolliert werden kann.
Man beurteilt die Pollensterilität von Pflanzen der Sonnenblume nach der Pollenfertilität und -keimfähigkeit, nach den morphologischen Besonderheiten von Spermien und nach der Fähigkeit von Achänen zum Ansetzen bei der Bestäubung der behandelten isolierten Pflanzen mit dem Pollen der unbehandelten väterlichen Form. Die Lebensfähigkeit der Eizelle wird nach der Samenbildung von behandelten Pflanzen bei freier Bestäubung mit der väterlichen Form bestimmt.
Man behandelt die Sonnenblume Sorte BHNNMK 8931 (WNIIMK 8931) in der V. Periode der Organogenese mit 0,5%iger wäßriger Emulsion von 4-Karboxybutyldezylsulfid, mit 1%iger Emulsion der δ, δ' -Sulfonyldivaleriansäure, 2%iger Emulsion von Bis(2-äthylhexyläther) der δ, δ' -Thiodivaleriansäure; die Sonnenblume der Linie BK-373 (WK-373) mit 2%iger Emulsion von Bis(2-äthylhexyläther) der δ δ' --Thiodivaleriansäure, mit 0,2%iger Emulsion von Bis(di--n-butyläther) der δ, δ' -Thiodivaleriansäure; die Sonnenblume der Linie BK=364 (WK-365) mit 2%iger wäßriger Emulsion von Bis(2-äthylhexyläther) der δ, δ' -Thirodivaleriansäure, mit 0,2%iger Emulsion von Bis(di-n-butyläther) der δ, δ' -Thiodivaleriansäure. Die Emulsion enthält 0,1 Masse% Kalziumalkylbenzolsulfonat mit 12 bis 14 Kohlenstoffatomen und 0,01 Masse% Dimethylsulfoxid. Als Kontrolle dienen Pflanzen, behandelt mit einem Verdünner ohne Sterilisationsmittel. Die Prüfergebnisse sind in der Tabelle 17 angegeben. […] Periode der Organogenese erhalten.

Toxicity in animal test = conditions: rat, in vivo; für Ratten
Experimental: Alle erfindungsgemäßen Thiokarbonsäuren oder ihre De- rivate, die als Sterilisationsmittel zur Verwendung kommen, waren auf die Toxizität im Tierversuch geprüft. Die Prüfergebnisse haben gezeigt, daß die angegebenen Verbindungen von schwacher oder mittlerer Toxizität sind. So beträgt beispielsweise LD50 mehr als 2000 mg/kg für Ratten bei Bis (2-äthylhexyläther) der δ, δ'-Thiodivaleriansäure, bei anderen Verbindungen liegen die LD50 -Werte auf dem gleichen Niveau.

[1] = Sorte Amphidiploid 206, 9 kg/ha
[2] = Sorte ВНИИМК 8931 (WNIIMK 8931), Beispiel 75: 0,5%ige, 76: 1%ige, 77: 2%ige Emulsion
[3] = Linie BK-373 (WK-373), Beispiel 78: 2%ige, 79: 0,2%ige Emulsion
[4] = Linie BK-364 (WK-364), Beispiel 80: 2%ige, 81: 0,2%ige Emulsion

CCCCOC(=O)CCCCSCCCCC(=O)OCCCC [Beispiel 59, Bis(di-n-butyläther) der δ, δ' -Thiodivaleriansäure]
Anzahl von Körnern der Ähre bei freier Bestäubung (Tritikale; PRAG 109, 15 kg/ha): 40,1
Anzahl von Körnern der Ähre im Isolator (Tritikale; PRAG 109, 15 kg/ha): 0,3
Prozentsatz der Sterilität (Tritikale; PRAG 109, 15 kg/ha): 99,3%
Prozentsatz des Ansetzens von Körnern bei freier Bestäubung (Tritikale; PRAG 109, 15 kg/ha): 87,6%

CCCCCCCCCCSCCCCC(=O)O [Beispiel 60, 4-Kaxboxybutyldezylsulfid]
Anzahl von Körnern der Ähre bei freier Bestäubung (Tritikale; PRAG 109, 15 kg/ha): 42,3
Anzahl von Körnern der Ähre im Isolator (Tritikale; PRAG 109, 15 kg/ha): 0,0
Prozentsatz der Sterilität (Tritikale; PRAG 109, 15 kg/ha): 100,0%
Prozentsatz des Ansetzens von Körnern bei freier Bestäubung (Tritikale; PRAG 109, 15 kg/ha): 92,4%

CCCCC(CC)COC(=O)CCCCSCCCCC(=O)OCC(CC)CCCC (stereo not drawn) [Beispiel 61, Bis(2-Äthylhexyläther) der δ, δ' -Thiodivaleriansäure]
Anzahl von Körnern der Ähre bei freier Bestäubung (Tritikale; PRAG 109, 15 kg/ha): 40,8
Anzahl von Körnern der Ähre im Isolator (Tritikale; PRAG 109, 15 kg/ha): 0,0
Prozentsatz der Sterilität (Tritikale; PRAG 109, 15 kg/ha): 100,0%
Prozentsatz des Ansetzens von Körnern bei freier Bestäubung (Tritikale; PRAG 109, 15 kg/ha): 89,1%

O=C(O)CCCCSCCCCC(=O)O [Beispiel 62, Natriumsalz der δ, δ'-Thiodivaleriansäure]
Anzahl von Körnern der Ähre bei freier Bestäubung (Tritikale; [1]): 32,5
Anzahl von Körnern der Ähre im Isolator (Tritikale; [1]): 0,9
Prozentsatz der Sterilität (Tritikale; [1]): 97,2%
Prozentsatz des Ansetzens von Körnern bei freier Bestäubung (Tritikale; [1]): 88,8%

O=C(O)CCCCS(=O)(=O)CCCCC(=O)O [Beispiel 63, δ, δ' -Sulfonyldivaleriansäure]
Anzahl von Körnern der Ähre bei freier Bestäubung (Tritikale; [1]): 30,1
Anzahl von Körnern der Ähre im Isolator (Tritikale; [1]): 0,1
Prozentsatz der Sterilität (Tritikale; [1]): 99,7%
Prozentsatz des Ansetzens von Körnern bei freier Bestäubung (Tritikale; [1]): 82,2%

O=C(O)CCCCS(=O)(=O)CCCCC(=O)O [Beispiel 64, Kaliumsalz der d , δ' -Sulfonyldivaleriansäure]
Anzahl von Körnern der Ähre bei freier Bestäubung (Tritikale; [1]): 29,8
Anzahl von Körnern der Ähre im Isolator (Tritikale; [1]): 0,0
Prozentsatz der Sterilität (Tritikale; [1]): 100,0%
Prozentsatz des Ansetzens von Körnern bei freier Bestäubung (Tritikale; [1]): 81,4%

CCCCCCCCCCSCCCCC(=O)O [Beispiel 75, 4-Karboxybutyldezylsulfid]
Prozentsatz der Sterilität (Sonnenblume; [2]): 100,0%
Prozentsatz des Ansetzens von Achänen bei freier Bestäubung (Sonnenblume; [2]): 82,9%

O=C(O)CCCCS(=O)(=O)CCCCC(=O)O [Beispiel 76, δ, δ' -Sulfonyldivaleriansäure]
Prozentsatz der Sterilität (Sonnenblume; [2]): 100,0%
Prozentsatz des Ansetzens von Achänen bei freier Bestäubung (Sonnenblume; [2]): 71,6%

CCCCC(CC)COC(=O)CCCCSCCCCC(=O)OCC(CC)CCCC (stereo not drawn) [Beispiel 77, Bis(2-äthylhexyläther) der δ, δ' -Thiodivaleriansäure]
Prozentsatz der Sterilität (Sonnenblume; [2]): 100,0%
Prozentsatz des Ansetzens von Achänen bei freier Bestäubung (Sonnenblume; [2]): 82,1%

CCCCC(CC)COC(=O)CCCCSCCCCC(=O)OCC(CC)CCCC (stereo not drawn) [Beispiel 78, Bis(2-äthylhexyläther) der δ δ' --Thiodivaleriansäure]
Prozentsatz der Sterilität (Sonnenblume; [3]): 100,0%
Prozentsatz des Ansetzens von Achänen bei freier Bestäubung (Sonnenblume; [3]): 60,7%

CCCCOC(=O)CCCCSCCCCC(=O)OCCCC [Beispiel 79, Bis(di--n-butyläther) der δ, δ' -Thiodivaleriansäure]
Prozentsatz der Sterilität (Sonnenblume; [3]): 100,0%
Prozentsatz des Ansetzens von Achänen bei freier Bestäubung (Sonnenblume; [3]): 62,7%

CCCCC(CC)COC(=O)CCCCSCCCCC(=O)OCC(CC)CCCC (stereo not drawn) [Beispiel 80, Bis(2-äthylhexyläther) der δ, δ' -Thirodivaleriansäure]
Prozentsatz der Sterilität (Sonnenblume; [4]): 100,0%
Prozentsatz des Ansetzens von Achänen bei freier Bestäubung (Sonnenblume; [4]): 67,9%

CCCCOC(=O)CCCCSCCCCC(=O)OCCCC [Beispiel 81, Bis(di-n-butyläther) der δ, δ' -Thiodivaleriansäure]
Prozentsatz der Sterilität (Sonnenblume; [4]): 100,0%
Prozentsatz des Ansetzens von Achänen bei freier Bestäubung (Sonnenblume; [4]): 59,3%

CCCCC(CC)COC(=O)CCCCSCCCCC(=O)OCC(CC)CCCC (stereo not drawn) [Bis (2-äthylhexyläther) der δ, δ'-Thiodivaleriansäure]
LD50 (Toxicity in animal test): > 2000 mg/kg
